The test system of experiment [1] is Staphylococcus aureus V41. In words: MIC, standard agar-dilution assay, Staphylococcus aureus V41. Format: cell-based. The conditions noted are these: Staphylococcus aureus V41; penicillin-resistant strain; agar dilution.
Experiment [2] relates to Streptococcus pyogenes C203. The experiment in a line: In vivo protection of mice experimentally infected with S. pyogenes C203. To be noted: mice, doses given 1 and 4 hours post-infection. The procedure:
The C-20 modified derivatives of this invention have shown in vivo antimicrobial activity against experimentally-induced infections in laboratory animals. When two doses of test compound were administered to mice experimentally infected with S. pyogenes C203, the activity observed was measured as an ED50 value [effective dose in mg/kg to protect 50% of the test animals: see Warren Wick, et al., J. Bacteriol. 81, 233-235 (1961)].

In experiment [3] the test system is Pasteurella hemolytica 22C. The experiment in a line: MIC, broth-dilution microtiter test, Pasteurella hemolytica 22C. Format: cell-based. The conditions noted are these: Pasteurella hemolytica 22C; broth-dilution microtiter. The source says: (§1) The MIC's in Table X were obtained using conventional broth-dilution microtiter tests.
Experiment [4] has as its system Staphylococcus aureus X1.1. The experiment in a line: MIC, standard agar-dilution assay, Staphylococcus aureus X1.1. It counts as cell-based. The conditions noted are these: Staphylococcus aureus X1.1; agar dilution.
In a further experiment the test system is Mycoplasma hyopneumoniae. In words: MIC, broth-dilution microtiter test, Mycoplasma hyopneumoniae. Format: cell-based. To be noted: Mycoplasma hyopneumoniae; broth-dilution microtiter.
Source text: as §1

The next experiment has as its system Staphylococcus aureus. The experiment in a line: MIC, broth-dilution microtiter test, Staphylococcus aureus. It counts as cell-based. To be noted: broth-dilution microtiter.
Source text: as §1

For experiment [5], the system named is Pasteurella multocida 17E. The experiment in a line: MIC, broth-dilution microtiter test, Pasteurella multocida 17E. It counts as cell-based. The conditions noted are these: Pasteurella multocida 17E; bovine isolate; broth-dilution microtiter.
Source text: as §1

A further experiment concerns Mycoplasma gallisepticum. The experiment in a line: MIC, broth-dilution microtiter test, Mycoplasma gallisepticum. The conditions noted are these: Mycoplasma gallisepticum; broth-dilution microtiter. Format: cell-based.
Source text: as §1

The test system of experiment [6] is Staphylococcus epidermidis EPI1. In words: MIC, standard agar-dilution assay, Staphylococcus epidermidis EPI1. It counts as cell-based. The conditions noted are these: Staphylococcus epidermidis EPI1; agar dilution.
Experiment [7] has as its system Staphylococcus aureus X400. The experiment in a line: MIC, standard agar-dilution assay, Staphylococcus aureus X400. To be noted: Staphylococcus aureus X400; methicillin-resistant strain; agar dilution. Format: cell-based.
Experiment [8] concerns Haemophilus influenzae R252. In words: MIC, standard agar-dilution assay, Haemophilus influenzae R252. It counts as cell-based. To be noted: Haemophilus influenzae R252; ampicillin-resistant strain; agar dilution.
Another experiment deals with Streptococcus Group 9960. The experiment in a line: MIC, standard agar-dilution assay, Streptococcus Group 9960. To be noted: Streptococcus Group 9960; agar dilution. It counts as cell-based.
Experiment [9] deals with Streptococcus pneumoniae Park I. In words: microbe, parasite or virus in culture. It counts as cell-based. The conditions noted are these: Streptococcus pneumoniae Park I; agar dilution.
The test system of experiment [10] is Pasteurella multocida 60A. In words: MIC, broth-dilution microtiter test, Pasteurella multocida 60A. To be noted: Pasteurella multocida 60A; avian isolate; broth-dilution microtiter. Format: cell-based.
Source text: as §1

Experiment [11] has as its system Staphylococcus aureus S13E. The experiment in a line: MIC, standard agar-dilution assay, Staphylococcus aureus S13E. Format: cell-based. To be noted: Staphylococcus aureus S13E; agar dilution.
For experiment [12], the system named is Haemophilus influenzae Holt. In words: MIC, standard agar-dilution assay, Haemophilus influenzae Holt. Format: cell-based. The conditions noted are these: Haemophilus influenzae Holt; ampicillin-sensitive strain; agar dilution.
Another experiment concerns Mycoplasma synoviae. In words: MIC, broth-dilution microtiter test, Mycoplasma synoviae. It counts as cell-based. The conditions noted are these: Mycoplasma synoviae; broth-dilution microtiter.
Source text: as §1

For experiment [13], the system named is Staphylococcus epidermidis EPI2. The experiment in a line: MIC, standard agar-dilution assay, Staphylococcus epidermidis EPI2. The conditions noted are these: Staphylococcus epidermidis EPI2; agar dilution. It counts as cell-based.
The test system of experiment [14] is Streptococcus Group D X66. The experiment in a line: MIC, standard agar-dilution assay, Streptococcus Group D X66. Format: cell-based. The conditions noted are these: Streptococcus Group D X66; agar dilution.
For experiment [15], the system named is Pasteurella multocida. In words: Oral (gavage) treatment of Pasteurella multocida-infected chicks. It counts as in vivo, one-day-old chicks. The conditions noted are these: 1.5 g/gal equivalent. The procedure:
(§2) Many of the C-20 modified derivatives of this invention have also shown in vivo antibacterial activity against infections induced by gram-negative bacteria. Tables XII and XIII summarize the results of tests in which illustrative compounds were evaluated against Pasteurella infection in one-day-old chicks. The compounds were administered parenterally or orally after challenge of the chicks with Pasteurella multocida (0.1 ml of a 10^-4 dilution of a twenty-hour tryptose broth culture of an avian P. multocida given subcutaneously). In these tests, unless indicated otherwise, all non-medicated infected chicks died within 24 hours of Pasteurella challenge. In the tests summarized in Table XII the compounds were administered by subcutaneous injection at a dosage of 30 mg/kg, 1 and 4 hours post-challenge of the chicks with P. multocida. In the test summarized in Table XIII the compounds were administered by gavage at 1 and 5 hours post-challenge of the chicks with P. multocida.

The subject of experiment [16] is Streptococcus pyogenes C203. In words: MIC, standard agar-dilution assay, Streptococcus pyogenes C203. It counts as cell-based. To be noted: Streptococcus pyogenes C203; agar dilution.
The next experiment has as its system Mycoplasma hyorhinis. In words: MIC, broth-dilution microtiter test, Mycoplasma hyorhinis. The conditions noted are these: Mycoplasma hyorhinis; broth-dilution microtiter. Format: cell-based.
Source text: as §1

In another experiment the test system is Streptococcus bovis 80. The experiment in a line: MIC, broth-dilution microtiter test, Streptococcus bovis 80. The conditions noted are these: Streptococcus bovis 80; broth-dilution microtiter. It counts as cell-based.
Source text: as §1

For experiment [17], the system named is Pasteurella multocida. The experiment in a line: Subcutaneous treatment of Pasteurella multocida-infected chicks. Format: in vivo, one-day-old chicks. The conditions noted are these: 30 mg/kg × 2, 1 and 4 hours post-challenge. The procedure:
as §2

≈ marks a conversion by molar mass, not a printed value.

The record followed here is US4443436A, “C-20-Modified macrolide derivatives of the macrolide antibiotics tylosin, desmycosin, macrocin, and lactenocin” (Eli Lilly and Company, priority 1982, dated 1984).

Consider `CCC1OC(=O)CC(O)C(C)C(OC2OC(C)C(O)C(N(C)C)C2O)C(CCOc2cc(Cl)cc(Cl)c2)CC(C)C(=O)C=CC(C)=CC1COC1OC(C)C(O)C(OC)C1OC` (stereo not drawn) [Compound 40, 20-DH-20-O-(3,5-Dichlorophenyl)desmycosin], for which the MIC in experiment [1] came out at 0.25 µg/mL (≈ 0.272 µM); in experiment [3], 12.5 µg/mL (≈ 13.6 µM); in [4], 0.25 µg/mL (≈ 0.272 µM); in the experiment on Mycoplasma hyopneumoniae it was 12.5 µg/mL (≈ 13.6 µM); against Staphylococcus aureus it was 0.39 µg/mL (≈ 0.424 µM); in experiment [5], 12.5 µg/mL (≈ 13.6 µM). For the same compound, the MIC is < 0.05 µg/mL in the experiment with Mycoplasma gallisepticum; 0.25 µg/mL (≈ 0.272 µM) in experiment [6]; 0.25 µg/mL (≈ 0.272 µM) in experiment [7]; 16 µg/mL (≈ 17.4 µM) in [8]; 8 µg/mL (≈ 8.71 µM) in the experiment on Streptococcus Group 9960; 1 µg/mL (≈ 1.09 µM) in experiment [9]. In addition, the MIC in [10] turned out to be 12.5 µg/mL (≈ 13.6 µM); in experiment [11] it was 0.25 µg/mL (≈ 0.272 µM); in experiment [12] it was 32 µg/mL (≈ 34.8 µM); with Mycoplasma synoviae, 0.19 µg/mL (≈ 0.207 µM); in [13] it was 0.12 µg/mL (≈ 0.131 µM); in experiment [14], 4 µg/mL (≈ 4.35 µM). The MIC was found to be 0.12 µg/mL (≈ 0.131 µM) in experiment [16], 12.5 µg/mL (≈ 13.6 µM) in the experiment with Mycoplasma hyorhinis and 3.12 µg/mL (≈ 3.4 µM) in the experiment on Streptococcus bovis 80. Further, the “ED50, Oral” value in experiment [2] is reported as 31 mg/kg × 2. Also, the “ED50, Subcutaneous” value in [2] is given as > 10 mg/kg × 2. The “Number of Deaths/Number tested” value in the experiment on Pasteurella multocida [15] is 10/10.

`CCC1OC(=O)CC(O)C(C)C(OC2OC(C)C(O)C(N(C)C)C2O)C(CCN2C(=O)c3ccccc3C2=O)CC(C)C(=O)C=CC(C)=CC1COC1OC(C)C(O)C(OC)C1OC` (stereo not drawn) [Compound 43, 20-DH-DO-20-N-Phthalimidodesmycosin]: the MIC in experiment [1] worked out at 0.12 µg/mL (≈ 0.133 µM); in [3], 25 µg/mL (≈ 27.7 µM); in experiment [4] it was 0.12 µg/mL (≈ 0.133 µM); in the experiment with Mycoplasma hyopneumoniae, 12.5 µg/mL (≈ 13.8 µM); against Staphylococcus aureus, 0.78 µg/mL (≈ 0.864 µM); in experiment [5] it was 25 µg/mL (≈ 27.7 µM). Moreover, the MIC against Mycoplasma gallisepticum is 0.78 µg/mL (≈ 0.864 µM); in [6], 0.12 µg/mL (≈ 0.133 µM); in experiment [7] it was 0.5 µg/mL (≈ 0.554 µM); in experiment [8], 32 µg/mL (≈ 35.4 µM); against Streptococcus Group 9960, 4 µg/mL (≈ 4.43 µM); in experiment [9] it was 2 µg/mL (≈ 2.21 µM). The MIC in [10] was found to be 12.5 µg/mL (≈ 13.8 µM); in experiment [11], 0.25 µg/mL (≈ 0.277 µM); in [12] it was 32 µg/mL (≈ 35.4 µM); in the experiment with Mycoplasma synoviae, 0.78 µg/mL (≈ 0.864 µM); in experiment [13] it was 0.25 µg/mL (≈ 0.277 µM); in [16], 0.25 µg/mL (≈ 0.277 µM). In addition, the results for the MIC with Mycoplasma hyorhinis and against Streptococcus bovis 80 were 50 µg/mL (≈ 55.4 µM) and 6.25 µg/mL (≈ 6.92 µM), respectively. In addition, in [2], the “ED50, Oral” value is given as 16 mg/kg × 2. Further, the “ED50, Subcutaneous” value in experiment [2] was 1.6 mg/kg × 2. The “Number of Deaths/Number Treated” value in the experiment on Pasteurella multocida [17] is 10/10.

For the compound `CCC1OC(=O)CC(O)C(C)C(OC2OC(C)C(O)C(N(C)C)C2O)C(CCOc2cccnc2)CC(C)C(=O)C=CC(C)=CC1COC1OC(C)C(O)C(OC)C1OC` (stereo not drawn) [Compound 49, 20-DH-20-O-(Pyridin-3-yl)desmycosin], the MIC in [1] worked out at 0.5 µg/mL (≈ 0.588 µM); in [3], 25 µg/mL (≈ 29.4 µM); in experiment [4], 0.5 µg/mL (≈ 0.588 µM); with Mycoplasma hyopneumoniae, 25 µg/mL (≈ 29.4 µM); in the experiment on Staphylococcus aureus it was 1.56 µg/mL (≈ 1.83 µM); in experiment [5] it was 25 µg/mL (≈ 29.4 µM). Further, the MIC is 0.78 µg/mL (≈ 0.917 µM) in the experiment on Mycoplasma gallisepticum; 0.5 µg/mL (≈ 0.588 µM) in experiment [6]; 0.5 µg/mL (≈ 0.588 µM) in experiment [7]; 16 µg/mL (≈ 18.8 µM) in experiment [8]; 16 µg/mL (≈ 18.8 µM) against Streptococcus Group 9960; 2 µg/mL (≈ 2.35 µM) in experiment [9]. Moreover, the MIC was found to be 25 µg/mL (≈ 29.4 µM) in experiment [10]; 0.5 µg/mL (≈ 0.588 µM) in [11]; 16 µg/mL (≈ 18.8 µM) in experiment [12]; 3.12 µg/mL (≈ 3.67 µM) against Mycoplasma synoviae; 0.25 µg/mL (≈ 0.294 µM) in experiment [13]; 16 µg/mL (≈ 18.8 µM) in [14]. Further, the results for the MIC (in experiment [16]; against Mycoplasma hyorhinis; against Streptococcus bovis 80) were 2 µg/mL (≈ 2.35 µM), 50 µg/mL (≈ 58.8 µM) and 25 µg/mL (≈ 29.4 µM), respectively. The “Number of Deaths/Number Treated” value in the experiment with Pasteurella multocida [17] is 9/10.
